Here are results for 30 compounds from patent publication US12637433B2, “Histone deacetylase inhibitors” (THE UNIVERSITY OF QUEENSLAND, priority 2020, dated 2026).

The target of the experiment is T1, human HDAC7 enzyme (Homo sapiens, UniProt Q8WUI4).
T1 construct: purchased Reaction Biology Corp
T1 sequence (Q8WUI4 whole entry): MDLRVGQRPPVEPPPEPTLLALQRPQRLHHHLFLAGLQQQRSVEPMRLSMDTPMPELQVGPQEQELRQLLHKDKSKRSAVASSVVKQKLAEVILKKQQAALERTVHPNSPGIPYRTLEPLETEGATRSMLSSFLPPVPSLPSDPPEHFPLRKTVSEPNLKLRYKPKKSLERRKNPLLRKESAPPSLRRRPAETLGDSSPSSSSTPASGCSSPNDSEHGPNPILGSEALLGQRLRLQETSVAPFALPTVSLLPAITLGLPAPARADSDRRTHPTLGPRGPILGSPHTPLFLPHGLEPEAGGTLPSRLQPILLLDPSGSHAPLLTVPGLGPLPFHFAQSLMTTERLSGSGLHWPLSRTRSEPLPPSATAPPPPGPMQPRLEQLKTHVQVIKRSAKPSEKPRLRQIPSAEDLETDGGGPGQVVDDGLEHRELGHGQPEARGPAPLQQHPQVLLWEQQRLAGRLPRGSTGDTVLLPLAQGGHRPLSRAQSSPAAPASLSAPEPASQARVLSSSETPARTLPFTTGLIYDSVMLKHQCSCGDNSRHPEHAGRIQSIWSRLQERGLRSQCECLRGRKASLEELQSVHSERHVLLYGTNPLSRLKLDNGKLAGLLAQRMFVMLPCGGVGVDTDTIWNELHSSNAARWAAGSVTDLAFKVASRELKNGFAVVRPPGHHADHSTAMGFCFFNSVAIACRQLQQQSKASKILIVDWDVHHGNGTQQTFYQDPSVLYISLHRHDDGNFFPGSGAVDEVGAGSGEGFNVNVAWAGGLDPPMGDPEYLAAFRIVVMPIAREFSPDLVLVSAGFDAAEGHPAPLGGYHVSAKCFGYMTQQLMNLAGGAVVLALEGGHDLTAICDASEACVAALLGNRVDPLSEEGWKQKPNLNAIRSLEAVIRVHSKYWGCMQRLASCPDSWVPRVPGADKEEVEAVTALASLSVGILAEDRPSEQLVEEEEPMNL
The experiment can be described thus: Human HDAC7 enzyme assay (Class IIa HDACs). Conditions: Table 8; recombinant human HDAC7. The format is biochemical.
As to `COc1ccc(Nc2ccc(C(=O)NO)c(-c3ccccc3)c2)cc1` [Example 77], the IC50 was 61 ± 9 nM.

Take `Cc1ccc(-c2cc(CNC(=O)Nc3cccc4cccnc34)ccc2C(=O)NO)cc1` [Example 11]: the IC50 worked out at 1890 ± 431 nM.

`O=C(NO)c1ccc(Nc2ccc3ccccc3c2)cc1-c1ccccc1` [Example 73]: the IC50 turned out to be 321 nM.

As for `CC1C(=O)N(C2CCCCC2)C(=O)N1Cc1ccc(C(=O)NO)c(-c2ccccc2)c1` (stereo not drawn) [Example 98], the IC50 was found to be 100 ± 18 nM.

For the compound `CC(=O)Nc1cccc(C(=O)NCc2ccc(C(=O)NO)c(-c3ccccc3)c2)c1` [Example 19], the IC50 came out at 78 ± 21 nM.

Turning to `O=C(NO)c1ccc(CNCc2ccccc2)cc1-c1ccccc1` [Example 30, 5-((benzylamino)methyl)-N-hydroxy-[1,1′-biphenyl]-2-carboxamide], the IC50 was 1470 ± 426 nM.

As for `CCCCCCNC(=O)NCc1ccc(C(=O)NO)c(-c2ccccc2)c1` [Example 29], the IC50 was 196 ± 66 nM.

For the compound `CC(=O)Nc1ccc(C(=O)NCc2ccc(C(=O)NO)c(-c3ccccc3)c2)cc1` [Example 20], the IC50 worked out at 101 ± 26 nM.

For the compound `O=C(NO)c1ccc(Nc2ccc(F)cc2)cc1-c1ccccc1` [Example 67], the IC50 amounted to 88 nM.

With `CONC(=O)c1ccc(Cn2c(C)nc3ccccc3c2=O)cc1-c1ccccc1` [Example 101], the IC50 was at least 10000 nM.

On to `O=C(Nc1ccccc1)Nc1ccc(C(=O)NO)c(-c2ccccc2)c1` [Example 86], for which the IC50 came to 248 nM.

In the case of `O=C(NCc1ccc(C(=O)NO)c(-c2cn[nH]c2)c1)Nc1cccc2cccnc12` [Example 104], the IC50 is over 10000 nM.

Turning to `O=C(NO)c1ccc(NC(=O)C2(C(=O)Nc3ccccc3)CCCC2)cc1-c1ccccc1` [Example 89], the IC50 was determined as 243 nM.

With `O=C(NCc1ccc(C(=O)NO)c(-c2ccc(F)cc2)c1)Nc1cccc2cccnc12` [Example 6], the IC50 is 118 ± 21 nM.

Regarding `O=C(NO)c1ccc(Nc2cnccn2)cc1-c1ccccc1` [Example 84], the IC50 came out at 233 ± 95 nM.

As for `Cc1ccccc1-c1cc(CNC(=O)Nc2cccc3cccnc23)ccc1C(=O)NO` [Example 9], the IC50 turned out to be 125 ± 26 nM.

As for `Cc1nc2ccccc2c(=O)n1Cc1ccc(C(=O)NO)c(C2CC2)c1` [Example 106], the IC50 worked out at 8660 nM.

Consider `O=C(NO)c1ccc(Nc2cc(F)c(F)c(F)c2)cc1-c1ccccc1` [Example 70], for which the IC50 was 649 nM.

As to `COc1ccc(C(=O)Nc2ccc(C(=O)NO)c(-c3ccccc3)c2)cc1` [Example 63], the IC50 is 323 nM.

As for `O=C(NCc1ccc(C(=O)NO)c(-c2cccc(Cl)c2)c1)Nc1cccc2cccnc12` [Example 8], the IC50 was 886 ± 192 nM.

With `Cc1ccc(C(=O)Nc2ccc(C(=O)NO)c(-c3ccccc3)c2)cc1` [Example 62], the IC50 is 431 nM.

`O=C(O)c1ccc(CNCc2ccc(C(=O)NO)c(-c3ccccc3)c2)cc1-c1ccccc1` [Example 33, N-(4-hydroxyaminocarbonyl-3-phenylbenzyl)-N-(4-hydroxycarbonyl-3-phenylbenzyl)amine]: the IC50 was 658 ± 208 nM.

With `O=C(NO)c1ccc(Nc2ccc(-c3ccccc3)cc2)cc1-c1ccccc1` [Example 72], the IC50 is over 10000 nM.

For `O=C(NO)c1ccc(Nc2ccc(C(F)(F)F)cc2)cc1-c1ccccc1` [Example 69], the IC50 worked out at 578 nM.

Take `O=C(NCc1ccc(C(=O)NO)c(-c2ccccc2)c1)c1cccnc1` [Example 17]: the IC50 is 151 ± 52 nM.

Regarding `O=C(NO)c1ccc(Nc2ccccc2)cc1-c1ccccc1` [Example 66], the IC50 is 94 nM.

On to `CC1C(=O)Nc2ccccc2C(=O)N1Cc1ccc(C(=O)NO)c(-c2ccccc2)c1` (stereo not drawn) [Example 97], for which the IC50 stood at 74 ± 13 nM.

For the compound `O=C(NO)c1ccc(Nc2ccccn2)cc1-c1ccccc1` [Example 82], the IC50 was 249 nM.

For the compound `Cc1ccc(Nc2ccc(C(=O)NO)c(-c3ccccc3)c2)cc1` [Example 76], the IC50 turned out to be 81 ± 19 nM.

As to `O=C(NO)c1ccc(NC(=O)C2(C(=O)Nc3ccccc3)CCCCC2)cc1-c1ccccc1` [Example 90], the IC50 amounted to 168 nM.
